Measured values published in US20260216054A1, “COMPOSITIONS COMPRISING EPILOBIUM FLEISCHERI EXTRACT FOR TREATING SIGNS OF AGING” (DSM IP Assets B.V., priority 2023, published 2026).

System: 70% normal and 30% senescent human dermal fibroblasts
Test: Senolytic activity study (SA-beta-galactosidase, flow cytometry)
Format: cell-based
Details: 1.5 μM, 72 hours
Method: Normal and senescent cell populations were obtained from normal human dermal fibroblasts. For the normal cell population, the cells were seeded in cell culture medium (Dulbecco's Modified Eagle Medium supplemented with 10% serum and 1% antibiotics) and allowed to adhere and proliferate in a humidified cell incubator maintaining 37° C. and 5% CO2. These were then passaged or collected when 90% confluent. For the senescent cell population, the normal fibroblast cells were at this stage shortly exposed to 200 μM H2O2 followed by normal cell culture medium. Several days later, the cells were treated again with H2O2 to obtain a fully senescent population. Both normal and senescent populations were mixed into a 70% normal and 30% senescent cell population and represented the treatment population. Afterward, the 70% normal and 30% senescent cell population were seeded in cell culture medium and allowed to adhere in the cell incubator. […] Afterward, senescence-associated beta-galactosidase was visualized—a well-known senescence marker—in the cells to quantify the senescence levels using flow cytometry. […] Data are normalized to the untreated control (30% senescent cells and 70% normal cells) and expressed as the mean±SD (n=4).

CC1(C)CCC(c2ccc(Cl)cc2)=C(CN2CCN(c3ccc(C(=O)NS(=O)(=O)c4ccc(N[C@H](CCN5CCOCC5)CSc5ccccc5)c(S(=O)(=O)C(F)(F)F)c4)cc3)CC2)C1 [Navitoclax]
Senescent cells (%) (70% normal/30% senescent mix, normalized to untreated control (30%), mean, n=4): 10% | Significant senolytic effect (versus CTRL): Yes
